# Measured values reported in US11198696B2, “Substituted xanthines as inhibitors of transient receptor potential cation channel subfamily c, member 5 activity” (Boehringer Ingelheim International GmbH, priority 2018, dated 2021).
# Target: T1, TRPC5 (Homo sapiens, UniProt Q9UL62)
# T1 construct: expressed in transfected cells; host or cells: HEK293 TREx cells, inducible TRPC5 expression, induced 20-48 hours
# T1 sequence (Q9UL62 1-973): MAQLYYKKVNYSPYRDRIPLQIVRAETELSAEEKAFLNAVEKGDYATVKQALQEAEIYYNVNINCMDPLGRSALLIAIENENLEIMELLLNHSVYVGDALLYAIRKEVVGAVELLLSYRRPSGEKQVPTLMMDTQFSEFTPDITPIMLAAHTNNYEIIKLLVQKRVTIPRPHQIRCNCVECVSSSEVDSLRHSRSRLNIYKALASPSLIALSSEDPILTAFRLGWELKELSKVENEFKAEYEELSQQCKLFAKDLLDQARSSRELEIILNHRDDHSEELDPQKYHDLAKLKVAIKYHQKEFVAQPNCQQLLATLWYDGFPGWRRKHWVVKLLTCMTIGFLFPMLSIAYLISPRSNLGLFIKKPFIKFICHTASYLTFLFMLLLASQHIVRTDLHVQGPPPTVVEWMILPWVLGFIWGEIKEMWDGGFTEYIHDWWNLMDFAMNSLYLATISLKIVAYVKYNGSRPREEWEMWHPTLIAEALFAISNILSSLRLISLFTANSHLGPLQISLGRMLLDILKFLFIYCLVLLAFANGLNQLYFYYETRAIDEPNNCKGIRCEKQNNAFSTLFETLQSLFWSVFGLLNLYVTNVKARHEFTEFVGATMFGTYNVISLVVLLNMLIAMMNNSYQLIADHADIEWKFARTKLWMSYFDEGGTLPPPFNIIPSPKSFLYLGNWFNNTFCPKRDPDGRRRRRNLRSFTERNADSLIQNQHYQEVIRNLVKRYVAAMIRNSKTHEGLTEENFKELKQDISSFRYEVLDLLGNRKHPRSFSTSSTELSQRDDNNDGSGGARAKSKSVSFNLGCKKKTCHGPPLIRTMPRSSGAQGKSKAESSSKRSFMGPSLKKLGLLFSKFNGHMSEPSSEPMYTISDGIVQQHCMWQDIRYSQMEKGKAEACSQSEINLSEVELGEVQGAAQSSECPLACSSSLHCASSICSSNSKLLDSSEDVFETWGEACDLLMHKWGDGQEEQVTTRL
# Test: Assay A: Determination of TRPC5-Inhibition (whole-cell patch clamp)
# Assay type: cell-based
# Details: compounds of the present invention, TRPC5-expressing HEK293 TREx cells, LaCl3-activated current
# Source text: Assay A: Determination of TRPC5-Inhibition
# Patch clamp experiments permit the detection of currents through the TRPC5 channel in a cell line. In normal whole-cell patch clamp recordings, a glass electrode is brought into contact with a single cell and a high-resistance (gigaohm) seal is established with the cell membrane. The membrane is then ruptured to achieve the whole-cell configuration, permitting control of the voltage of the cell membrane and measurement of currents flowing across the membrane using the amplifier attached to the electrode and resulting in the replacement of cytoplasm with the pipette solution. A perfusion system permits control of the extracellular solution, including the addition of blockers and activators of the current. The current can be activated by including 1.4 μM free Ca2+ in the pipette (intracellular) solution, and 80 μM LaCl3 in the extracellular solution.
# TRPC5 cells were induced 20-48 hours, removed from growth plates, and replated at low density (to attain good single-cell physical separation) on glass coverslips for measurement. In some cases, cells were grown in low density overnight on glass coverslips. Patch clamp recordings were made in the whole-cell mode with a holding potential of −40 mV. Every 5 seconds, a voltage ramp was applied from −120 to +100 mV, 400 ms in duration. Currents elicited were quantified at −80 mV and +80 mV. The internal solution consisted of 140 mM cesium aspartate, 10 mM HEDTA, 2 mM CaCl2, 2.27 mM MgCl2 and 10 mM HEPES, pH 7.2, with 1,400 nM calculated free Ca2+. The external solution consisted of 150 mM NaCl, 4.5 mM 15 KCl, 1 mM MgCl2, 2 mM CaCl2, 10 mM HEPES, 10 mM glucose, 1 mM EGTA, pH 7.4. Upon addition of LaCl3, TRPC5 current was induced only in TRPC5-expressing cells and not in parental HEK293 TREx cells. Removal of the LaCh stimulus causes most of the current to go away. Potential blockers were tested for ability to block both inward and outward currents in the continued presence of LaCl3.
# IC50 of a compound of the invention was estimated by testing the compound 500 nM. […] Compounds blocking 50% or more at 500 nM are retested at multiple concentrations, and the % block is fitted by standard equations to determine IC50 accurately, using a 5/6 point concentration-response experiment.
row,SMILES,IC50 [nM]
1,CCn1c(=O)n(CCCO)c(=O)c2c1nc(-c1ccc(O[C@H]3CCC[C@@H]3C)nc1C)n2Cc1ccc(Cl)cc1 (racemic) [Example 21],0.249
2,Cc1nc(OC2CCC2C)ccc1-c1nc2c(c(=O)n(CCCO)c(=O)n2C(C)C)n1Cc1ccc(F)cc1 (centres unmarked) [Example 1],< 0.032
3,Cc1nc(OC2CCCCC2)ccc1-c1nc2c(c(=O)n(CCCO)c(=O)n2C(C)C)n1Cc1ccccc1 [Example 2],0.095
4,Cc1nc(OC2CCCC2)ccc1-c1nc2c(c(=O)n(CCCO)c(=O)n2C(C)C)n1Cc1ccc(F)cc1 [Example 4],< 0.1
5,Cc1nc(OC2CCC23CCC3)ccc1-c1nc2c(c(=O)n(CCCO)c(=O)n2C(C)C)n1Cc1ccccc1 (centres unmarked) [Example 6],< 0.1
6,Cc1nc(OC2CCCC2)ccc1-c1nc2c(c(=O)n(CCCO)c(=O)n2C(C)C)n1Cc1ccccc1 [Example 9],0.13
7,CCn1c(=O)n(CCCO)c(=O)c2c1nc(-c1ccc(OC3CCC3C)nc1C(F)(F)F)n2Cc1ccc(Cl)cc1 (centres unmarked) [Example 10],0.15
8,CCn1c(=O)n(CCCO)c(=O)c2c1nc(-c1ccc(OC3CCC3C)nc1C(F)(F)F)n2Cc1ccccc1 (centres unmarked) [Example 12],0.171
9,CCn1c(=O)n(CCCO)c(=O)c2c1nc(-c1ccc(OC3CCC3C)nc1C(F)(F)F)n2Cc1ccc(F)cc1 (centres unmarked) [Example 15],0.184
10,CCn1c(=O)n(CCCO)c(=O)c2c1nc(-c1ccc(OC3CC(C)C3)nc1C)n2Cc1ccc(Cl)cc1 (centres unmarked) [Example 17],0.199
11,CCn1c(=O)n(CCCO)c(=O)c2c1nc(-c1ccc(OC3CC(C)C3)nc1C)n2Cc1ccc(F)cc1 (centres unmarked) [Example 18],0.207
12,CCn1c(=O)n(CCCO)c(=O)c2c1nc(-c1ccc(OC3CCCC3)nc1C)n2Cc1ccc(Cl)cc1 [Example 23],0.275
13,CCn1c(=O)n(CCCO)c(=O)c2c1nc(-c1ccc(OC3CC(C)(C)C3)nc1C)n2Cc1ccc(F)cc1 [Example 24],0.281
14,Cc1nc(OC2CC(C)C2)ccc1-c1nc2c(c(=O)n(CCCO)c(=O)n2C(C)C)n1Cc1ccccc1 (centres unmarked) [Example 26],< 0.32
15,CCn1c(=O)n(CCCO)c(=O)c2c1nc(-c1ccc(O[C@H]3C[C@@H](C)C3)nc1C)n2Cc1ccccc1 [Example 27],0.402
16,CCn1c(=O)n(CCCO)c(=O)c2c1nc(-c1ccc(OC3CCCCC3)nc1C)n2Cc1ccc(F)cc1 [Example 29],0.403
17,CCn1c(=O)n(CCCO)c(=O)c2c1nc(-c1ccc(OC3CCC3(C)C)nc1C)n2Cc1ccccc1 (centres unmarked) [Example 31],0.431
18,CCn1c(=O)n(CCCO)c(=O)c2c1nc(-c1ccc(OC3CC(C)(C)C3)nc1C)n2Cc1ccccc1 [Example 32],0.46
19,Cc1nc(OC2CCC2)ccc1-c1nc2c(c(=O)n(CCCO)c(=O)n2C(C)C)n1Cc1ccc(F)cc1 [Example 33],0.477
20,CCC(C)n1c(=O)n(CCCO)c(=O)c2c1nc(-c1ccc(OC3CCCC3)nc1C)n2Cc1ccccc1 (centres unmarked) [Example 37],0.603
21,CCn1c(=O)n(CCCO)c(=O)c2c1nc(-c1ccc(OC3CCC3)nc1)n2Cc1ccc(Br)cc1 [Example 38],0.613
22,CCC(C)n1c(=O)n(CCCO)c(=O)c2c1nc(-c1ccc(OC3CCC3)nc1C)n2Cc1ccccc1 (centres unmarked) [Example 42],0.713
23,Cc1nc(OC2CC(F)(F)C2)ccc1-c1nc2c(c(=O)n(CCCO)c(=O)n2C(C)C)n1Cc1ccccc1 [Example 43],0.732
24,CCn1c(=O)n(CCCO)c(=O)c2c1nc(-c1ccc(OC3CCCC3)nc1C)n2Cc1ccc(F)cc1 [Example 44],0.743
25,CCn1c(=O)n(CCCO)c(=O)c2c1nc(-c1ccc(OC3CCC3)nc1)n2Cc1ccc(SC(F)(F)F)cc1 [Example 46],0.812
26,CCn1c(=O)n(CCCO)c(=O)c2c1nc(-c1ccc(OC3CCC3)nc1)n2Cc1ccc(C2CC2)cc1 [Example 49],1.01
27,CCn1c(=O)n(CCCO)c(=O)c2c1nc(-c1ccc(OC3CCC3)nc1C)n2Cc1ccc(F)cc1 [Example 50],1.16

# Continued, values first:
row,IC50 [nM],SMILES
1,0.099,CCn1c(=O)n(CCCO)c(=O)c2c1nc(-c1ccc(OC3CCC3C)nc1C)n2Cc1ccc(Cl)cc1 (centres unmarked) [Example 3]
2,< 0.1,Cc1nc(OC2CC(C)C2)ccc1-c1nc2c(c(=O)n(CCCO)c(=O)n2C(C)C)n1Cc1ccc(F)cc1 (centres unmarked) [Example 5]
3,0.104,CCn1c(=O)n(CCCO)c(=O)c2c1nc(-c1ccc(OC3CC4CCC3C4)nc1C)n2Cc1ccc(F)cc1 (centres unmarked) [Example 7]
4,0.163,CCn1c(=O)n(CCCO)c(=O)c2c1nc(-c1ccc(OC3CCC3(C)C)nc1C)n2Cc1ccc(F)cc1 (centres unmarked) [Example 11]
5,0.174,CCn1c(=O)n(CCCO)c(=O)c2c1nc(-c1cc(F)c(OC3CCC3)nc1C)n2Cc1ccc(F)cc1 [Example 13]
6,0.178,CCn1c(=O)n(CCCO)c(=O)c2c1nc(-c1ccc(OC3CCC3C)nc1C)n2Cc1ccc(Br)cc1 (centres unmarked) [Example 14]
7,0.19,Cc1nc(OC2CCC2)ccc1-c1nc2c(c(=O)n(CCCO)c(=O)n2C2CCC2)n1Cc1ccccc1 [Example 16]
8,0.236,Cc1nc(OC2CCC2C)ccc1-c1nc2c(c(=O)n(CCCO)c(=O)n2C(C)C)n1Cc1ccccc1 (centres unmarked) [Example 19]
9,0.246,CCC(C)n1c(=O)n(CCCO)c(=O)c2c1nc(-c1ccc(OC3CC(C)C3)nc1C)n2Cc1ccccc1 (centres unmarked) [Example 20]
10,0.265,Cc1nc(OC2CC=CC2)ccc1-c1nc2c(c(=O)n(CCCO)c(=O)n2C(C)C)n1Cc1ccccc1 [Example 22]
11,0.312,Cc1nc(OC2CC(F)(F)C2)ccc1-c1nc2c(c(=O)n(CCCO)c(=O)n2C(C)C)n1Cc1ccc(F)cc1 [Example 25]
12,0.917,CCn1c(=O)n(CCCO)c(=O)c2c1nc(-c1ccc(O[C@H]3C[C@H](C)C3)nc1C)n2Cc1ccccc1 [Example 28]
13,0.426,Cc1nc(OC2CCC2)ccc1-c1nc2c(c(=O)n(CCCO)c(=O)n2C(C)C)n1Cc1ccccc1 [Example 30]
14,0.485,CCn1c(=O)n(CCCO)c(=O)c2c1nc(-c1ccc(OC3CC(C)C3)nc1C)n2Cc1ccccc1 (centres unmarked) [Example 34]
15,0.531,CCn1c(=O)n(CCCO)c(=O)c2c1nc(-c1ccc(OC3CCC(C(F)(F)F)CC3)nc1C)n2Cc1ccc(F)cc1 (centres unmarked) [Example 35]
16,0.551,CCn1c(=O)n(CCCO)c(=O)c2c1nc(-c1ccc(OC3CCC3)nc1C)n2Cc1ccc(Cl)cc1 [Example 36]
17,0.628,CCn1c(=O)n(CCCO)c(=O)c2c1nc(-c1cc(F)c(OC3CCC3)nc1C)n2Cc1ccccc1 [Example 39]
18,0.643,CCn1c(=O)n(CCCO)c(=O)c2c1nc(-c1ccc(OC3CCC3C)nc1)n2Cc1ccc(Cl)cc1 (centres unmarked) [Example 40]
19,0.688,CCn1c(=O)n(CCCO)c(=O)c2c1nc(-c1ccc(OC3CCC3C)nc1C)n2Cc1ccc(F)cc1 (centres unmarked) [Example 41]
20,0.75,CCn1c(=O)n(CCCO)c(=O)c2c1nc(-c1ccc(OC3CC=CC3)nc1C)n2Cc1ccc(F)cc1 [Example 45]
21,0.859,CCn1c(=O)n(CCCO)c(=O)c2c1nc(-c1ccc(OC3CC(F)(F)C3)nc1C)n2Cc1ccc(F)cc1 [Example 47]
22,0.873,CCn1c(=O)n(CCCO)c(=O)c2c1nc(-c1ccc(OC3CCC3)nc1)n2Cc1ccc(Cl)cc1 [Example 48]
23,1.36,CCn1c(=O)n(CCCO)c(=O)c2c1nc(-c1ccc(OC3CCC3C)nc1)n2Cc1ccc(F)cc1 (centres unmarked) [Example 51]
